The text below walks through data of US20090036400A1, “Pharmaceutical Preparations for Treating the Consequences of Alcohol Abuse, Hepatitis, Pancreatitis, Alzheimer's Disease, Parkinson's Disease, Diabetes, Toxic Kidney Disease, Reperfusion Damage, Arteriosclerosis, and as an Antidote Against Environmental Toxins and Medicinal Intoxication” (priority 2004, published 2009).

Counter-ions that a name gives are not always drawn.

For this series, the target named is T1, cytochrome P450 2E1 (Rattus norvegicus, UniProt P05182).
T1 construct: from tissue
T1 sequence (P05182 whole entry): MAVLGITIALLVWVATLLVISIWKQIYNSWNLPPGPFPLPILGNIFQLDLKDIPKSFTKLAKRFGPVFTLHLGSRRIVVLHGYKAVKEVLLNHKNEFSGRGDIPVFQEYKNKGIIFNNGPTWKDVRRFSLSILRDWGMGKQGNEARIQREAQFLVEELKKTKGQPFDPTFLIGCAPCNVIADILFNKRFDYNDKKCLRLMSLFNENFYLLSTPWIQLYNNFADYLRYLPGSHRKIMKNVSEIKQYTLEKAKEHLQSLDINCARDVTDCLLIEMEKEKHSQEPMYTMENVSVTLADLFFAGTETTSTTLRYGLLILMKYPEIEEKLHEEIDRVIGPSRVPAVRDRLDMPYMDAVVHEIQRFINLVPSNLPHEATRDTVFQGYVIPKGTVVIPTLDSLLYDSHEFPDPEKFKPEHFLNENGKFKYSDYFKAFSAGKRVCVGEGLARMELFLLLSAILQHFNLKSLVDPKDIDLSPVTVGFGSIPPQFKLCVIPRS
Put plainly: p-nitrophenol-hydroxylase activity determination (inhibiting constants). It is filed as biochemical. As to conditions: microsomal fraction of acetone-induced Sprague-Dawley rats; substrate p-nitrophenol; read-out: Ki (inhibiting constant). How it is done: 8 male Sprague-Dawley rats were administered 5% acetone (v-v) in drinking water for 7 days, as described by M. H. Wang et al. in Arch. Biochem. Biophys. […] The preparation of the microsomal fraction is carried out based on the method published by Wang, P., Mason, P. S., Günderlich, F. G., in Arch. Biochem. Biophys.
p-Nitrophenol applies as a specific substrate for cytochrome P450 2E1.

In the case of `CCCCCCCCCCCCCCCCC(N)COP(=O)([O-])OCC[N+](C)(C)C` (racemic) [rac-1-O-phosphocholine-2-amino-octadecane-hydrochloride], the Ki (as a rule, the equilibrium dissociation constant of an inhibitor or competing ligand from its target) came to 2250 nM.

`CCCCCCCCCCCCCCCCOP(=O)([O-])OCC[N+](C)(C)C` [Hexadecylphosphocholine, reference compound]: the Ki was found to be 600 nM.

Regarding `CCCCCCCCCCCCOP(=O)([O-])OCC[N+](C)(C)C` [Dodecylphosphorylcholine], the Ki is 450 nM.
